Tests used:
human P2Y12 = target: T1, human P2Y12 (Homo sapiens, UniProt Q9H244); experiment: Substitution test of the binding between human P2Y12 and 2-methylthio-ADP (2-MeS-ADP); settings: compound at 30 nM final concentration; [3H]-2-MeS-ADP; membrane fraction of C6-15 cells expressing human P2Y12
T1 construct: expressed in transfected cells; membrane fraction
Description: (2) Substitution Test of the Binding Between Human P2Y12 and 2-methylthio-ADP (2-MeS-ADP)
After C6-15 cells were inoculated on a DMEM culture medium to 1×10^6 cells in a 10-cm petri dish for culturing for one day, where 8 μg of a plasmid pEF-BOS-dhfr-human P2Y12 and 0.8 μg of pEF-BOS-neo (Nucleic Acid Res., 18, 5322, 1990) were genetically introduced with a transfection reagent (LipofectAMINE 2000; manufactured by GIBCO BRL).
24 hours after the gene introduction procedure described above, the cells with the gene introduced therein were recovered and suspended in a DMEM culture medium containing 0.6 mg/ml G418 (manufactured by GIBCO BRL), to prepare serial dilutions, which were inoculated on a 10-cm petri dish. Colonies appearing 2 weeks later were individually obtained and defined as C6-15 cell expressing the protein P2Y12, for use in the following experiment (WO 02/36631, Mol. Pharmacol., 60, 432, 2001).
The C6-15 cell expressing the protein P2Y12 was cultured and recovered. […]
1.5 μl of an active ingredient or compound of the invention and 50 μl of 0.75 nM [^3H]-2-MeS-ADP (80 Ci/mmol; manufactured by Amersham Pharmacia Biotech) were added to 100 μl of the P2Y12 protein-expressing C6-15 cell membrane fraction (100 μg/ml) thus prepared, for incubation in 50 mM Tris-HCl, pH 7.4 containing 100 mM NaCl and 50 mM MgCl2, at ambient temperature for one hour. […] Adding a microscintillator onto the glass filter, the radioactivity was assayed with a liquid scintillation counter. At the test, additionally, the radioactivity levels of such cell cultures with no addition of the compound and with addition of 1.5 μl of 100 μM 2-MeS-ADP were assayed as total binding and non-specific binding, respectively. Defining the total binding and the non-specific binding at inhibition ratios of 0% and 100%, respectively, the inhibition ratio (%) of an active ingredient or compound in accordance with the invention was calculated.

[1] = tested on: Human platelet aggregation; experiment: Test for assaying human platelet aggregation-inhibiting activity (ADP-induced aggregation in platelet-enriched plasma); type: cell-based; settings: compound at 10 μM final concentration; human PRP; aggregation induced by ADP; area-under-the curve of platelet aggregation as indicator; read-out: % inhibition (Human platelet aggregation-inhibiting action)
Description: (1) Test for Assaying Human Platelet Aggregation-Inhibiting Activity
Blood was withdrawn from healthy human volunteers (adult males), in the presence of a 1/10th volume of sodium citrate, and centrifuged to obtain supernatant platelet-enriched plasma (PRP). The platelet count in PRP was determined with an automatic blood cell counter (MEK-6258; manufactured by NIHON KOHDEN CORPORATION). Then, the platelet count in PRP was adjusted to 3×10^8/ml with platelet-poor plasma. ADP as a platelet aggregation-inducing agent was a product of MCMEDICAL, Inc. Platelet aggregation was measured using an aggregometer (MCM Hematracer 212; MCMEDICAL, Inc.). Specifically, 80 μl of PRP and 10 μl of a solution of an active ingredient or compound of the invention or a solvent (10% DMSO) were incubated together at 37° C. for one minute, to which 10 μl of ADP (50 μM) was added to induce platelet aggregation. Then, the change of the transmitting light was recorded over 5 minutes. Using the area-under-the curve of platelet aggregation as an indicator, the inhibition ratio was calculated.

T1 sequence (Q9H244 whole entry): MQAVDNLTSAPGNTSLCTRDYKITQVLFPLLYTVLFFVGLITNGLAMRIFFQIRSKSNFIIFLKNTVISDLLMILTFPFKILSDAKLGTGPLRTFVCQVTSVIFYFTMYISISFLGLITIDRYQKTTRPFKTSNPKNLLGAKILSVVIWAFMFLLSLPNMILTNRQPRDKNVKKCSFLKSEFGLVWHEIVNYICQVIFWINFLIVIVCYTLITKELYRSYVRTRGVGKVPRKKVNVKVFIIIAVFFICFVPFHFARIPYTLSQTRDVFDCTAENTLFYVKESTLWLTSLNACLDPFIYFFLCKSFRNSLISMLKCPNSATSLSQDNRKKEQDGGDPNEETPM

inhibition at 0.03 µM (human P2Y12)	SMILES	% inhibition (Inhibition activity of the binding between P2Y12 and 2-MeS-ADP) (human P2Y12)	inhibition at 10 µM [1]
	CCOP(=O)(O)CCNC(=O)c1cn(C(CO)CO)c2cc(NC3CCCCC3)c(F)cc2c1=O [Example 22, ethyl{2-[({7-(cyclohexylamino)-6-fluoro-4-oxo-1-[2-hydroxy-1-(hydroxymethyl)ethyl]-4-oxo-1,4-dihydroquinolin-3-yl}carbonyl)amino]ethyl}phosphonic acid]	75%	
96%	CC1(C)OCC(n2cc(C(=O)NCCP(=O)(O)O)c(=O)c3cc(F)c(NC4CCCCC4)cc32)CO1 [Example 18, [2-({[7-(cyclohexylamino)-1-(2,2-dimethyl-1,3-dioxan-5-yl)-6-fluoro-4-oxo-1,4-dihydroquinolin-3-yl]carbonyl}amino)ethyl]phosphonic acid]		92%
63%	CCC(CC)n1cc(C(=O)NC(C)(C)C(=O)O)c(=O)c2cc(F)c(NC3CCCCC3)cc21 [Example 28, 2-({[7-(cyclohexylamino)-1-(1-ethylpropyl)-6-fluoro-4-oxo-1,4-dihydroquinolin-3-yl]carbonyl}amino)-2-methylpropionic acid]		

— patent US7879878B2, “Quinolone derivative or salt thereof” (Astellas Pharma Inc., priority 2003, dated 2011)
